Assay: xn = mol fraction of the nth substance listed

CCCCCO + CCCC[n+]1ccn(C)c1.O=S(=O)([N-]S(=O)(=O)C(F)(F)F)C(F)(F)F
298 K, 100 kPa
Conditions | electrical conductivity [S/m] | viscosity [mPa·s]
x2 = 0 | – | 3.486
x2 = 0.5988 | – | 20.14
x2 = 0.6 | 0.5605 | –
x2 = 0.6994 | – | 25.03
x2 = 0.7 | 0.526 | –
x2 = 0.8 | 0.487 | –
x2 = 0.8014 | – | 31.59
x2 = 0.9 | 0.4445 | –
x2 = 0.9023 | – | 39

CCCCCCCCn1cc[n+](C)c1.N[C@@H](CCC(=O)O)C(=O)[O-] + O
298.15 K, 100 kPa
Conditions | electrical conductivity [S/m]
x1 = 0.001637 | 0.28
x1 = 0.002301 | 0.358
x1 = 0.002857 | 0.426
x1 = 0.003573 | 0.518
x1 = 0.004181 | 0.593
x1 = 0.004913 | 0.651
x1 = 0.005822 | 0.708
x1 = 0.006748 | 0.759
x1 = 0.008079 | 0.835
x1 = 0.008965 | 0.89
x1 = 0.01029 | 0.928
x1 = 0.01145 | 0.926

CCCCCCCCCCCC[n+]1ccn(C)c1.[Cl-] + O
298.15 K, 100 kPa, frequency 0.001 MHz
Conditions | electrical conductivity [S/m]
x1 = 7.207e-05 | 0.035
x1 = 9.009e-05 | 0.043
x1 = 0.0001261 | 0.059
x1 = 0.0001802 | 0.085
x1 = 0.0002162 | 0.102
x1 = 0.0002882 | 0.129
x1 = 0.0003242 | 0.137
x1 = 0.0004143 | 0.155
x1 = 0.0004503 | 0.163
x1 = 0.0004863 | 0.17
x1 = 0.0005223 | 0.177

O=S(=O)([N-]S(=O)(=O)C(F)(F)F)C(F)(F)F.[Li+] + COC(=O)OC
298.1 K, 100 kPa, x1 = 0.333
Conditions | electrical conductivity [S/m] | viscosity [mPa·s]
– | 0.12 | 53.7

CCCC[N+](C)(C)C[c-]1cccc1.O=S(=O)([N-]S(=O)(=O)C(F)(F)F)C(F)(F)F.[Fe+2].c1cc[cH-]c1 + CC#N
100 kPa
Conditions | electrical conductivity [S/m]
298 K, x1 = 0.03 | 2.17
303 K, x1 = 0.1 | 1.88
308 K, x1 = 0.08 | 2.2
308 K, x1 = 0.2 | 0.945
313 K, x1 = 0.07 | 2.47
318 K, x1 = 0.01 | 1.58
318 K, x1 = 0.06 | 2.67
318 K, x1 = 0.08 | 2.47
318 K, x1 = 0.15 | 1.58
318 K, x1 = 0.2 | 1.14
323 K, x1 = 0.01 | 1.64
323 K, x1 = 0.2 | 1.24
328 K, x1 = 0.05 | 2.95
328 K, x1 = 0.12 | 2.19
333 K, x1 = 0.01 | 1.75
333 K, x1 = 0.02 | 2.5
333 K, x1 = 0.03 | 2.92
333 K, x1 = 0.07 | 3
338 K, x1 = 0.05 | 3.2
338 K, x1 = 0.07 | 3.15
343 K, x1 = 0.07 | 3.28
343 K, x1 = 0.08 | 3.15
343 K, x1 = 0.15 | 2.19
348 K, x1 = 0.02 | 2.76
348 K, x1 = 0.07 | 3.42
348 K, x1 = 0.08 | 3.3
348 K, x1 = 0.12 | 2.74

CSCC[C@H](N)C(=O)O + CCCCCCCCCCCC[N+](C)(C)C.[Br-] + O
viscosity [mPa·s], 101 kPa
Conditions | 293.15 K | 298.15 K | 303.15 K | 308.15 K | 313.15 K
x1 = 0.0001801, x2 = 0.0001083 | 1.019 | 0.904 | 0.811 | 0.746 | 0.677
x1 = 0.0001801, x2 = 0.0001624 | 1.024 | 0.907 | 0.814 | 0.749 | 0.68
x1 = 0.0001801, x2 = 0.0002165 | 1.03 | 0.909 | 0.816 | 0.75 | 0.681
x1 = 0.0001801, x2 = 0.0002706 | 1.034 | 0.912 | 0.818 | 0.752 | 0.683
x1 = 0.0001801, x2 = 0.0003247 | 1.04 | 0.915 | 0.82 | 0.754 | 0.685
x1 = 0.0001801, x2 = 0.0003788 | 1.044 | 0.919 | 0.823 | 0.756 | 0.687
x1 = 0.0001801, x2 = 0.0004329 | 1.046 | 0.922 | 0.829 | 0.758 | 0.689
x1 = 0.0001801, x2 = 0.0004869 | 1.049 | 0.927 | 0.834 | 0.76 | 0.691
x1 = 0.0001801, x2 = 0.000541 | 1.052 | 0.931 | 0.84 | 0.762 | 0.694
x1 = 0.0001802, x2 = 5.413e-05 | 1.013 | 0.9 | 0.81 | 0.745 | 0.672
x1 = 0.0008997, x2 = 0.0005439 | 1.07 | 0.912 | 0.836 | 0.761 | 0.683
x1 = 0.0008998, x2 = 0.0003808 | 1.061 | 0.906 | 0.819 | 0.751 | 0.672
x1 = 0.0008998, x2 = 0.0004351 | 1.063 | 0.908 | 0.822 | 0.753 | 0.675
x1 = 0.0008998, x2 = 0.0004895 | 1.066 | 0.91 | 0.831 | 0.756 | 0.679
x1 = 0.0008999, x2 = 0.000272 | 1.057 | 0.902 | 0.812 | 0.746 | 0.668
x1 = 0.0008999, x2 = 0.0003264 | 1.059 | 0.904 | 0.815 | 0.748 | 0.67
x1 = 0.0009, x2 = 0.0001632 | 1.053 | 0.899 | 0.809 | 0.74 | 0.663
x1 = 0.0009, x2 = 0.0002176 | 1.054 | 0.901 | 0.81 | 0.743 | 0.666
x1 = 0.0009001, x2 = 5.441e-05 | 1.048 | 0.894 | 0.805 | 0.732 | 0.658
x1 = 0.0009001, x2 = 0.0001088 | 1.051 | 0.896 | 0.807 | 0.735 | 0.66
x1 = 0.001798, x2 = 0.0001643 | 1.062 | 0.911 | 0.822 | 0.745 | 0.675
x1 = 0.001798, x2 = 0.000219 | 1.064 | 0.913 | 0.824 | 0.747 | 0.676
x1 = 0.001798, x2 = 0.0002738 | 1.066 | 0.916 | 0.827 | 0.749 | 0.678
x1 = 0.001798, x2 = 0.0003285 | 1.069 | 0.919 | 0.83 | 0.751 | 0.681
x1 = 0.001798, x2 = 0.0003832 | 1.073 | 0.921 | 0.832 | 0.756 | 0.683
x1 = 0.001798, x2 = 0.0004379 | 1.076 | 0.927 | 0.836 | 0.76 | 0.686
x1 = 0.001798, x2 = 0.0004927 | 1.079 | 0.932 | 0.84 | 0.764 | 0.692
x1 = 0.001798, x2 = 0.0005474 | 1.083 | 0.937 | 0.844 | 0.77 | 0.698
x1 = 0.001799, x2 = 5.476e-05 | 1.059 | 0.906 | 0.818 | 0.741 | 0.671
x1 = 0.001799, x2 = 0.0001095 | 1.06 | 0.909 | 0.82 | 0.743 | 0.673

Source: the CheMixHub ionic liquid set
